The text below walks through data of publication PMC6071225 (Viruses, 2018).

Read-outs that look alike come from different tables or passages of the source.

The test system of assay [1] is wt NA2009. Format: biochemical.
Assay [2] has as its system catalytic domain of wild-type NA2009. It counts as binding. The note with it: wt.
The mark [3] stands for this setting: 50 mM MES (or ACES), pH 6.15, 25 °C.
[4] abbreviates: 50 mM MES (or ACES), pH 6.15, 25 °C, listed as Oseltamivir.

On to `CCC(CC)O[C@@H]1C=C(C(=O)O)C[C@H](N)[C@H]1NC(C)=O` [oseltamivir carboxylate], for which, in assay [1] (wt NA2009, compared with that of wt NA2009), the “Fold Ki” value amounted to 1 fold. This compound also had a Ki in assay [1] (wt NA2009, mean ± s.d., two independent experiments, 37 °C) of 24 ± 4 nM. Moreover, in assay [2] (compared with that of wt NA2009), the “Fold Kd” value was 1 fold. Moreover, in assay [2] (setting [3]), the Kd came out at 140 ± 20 nM, the ΔG is -9.4 ± 0.1 kcal/mol, the ΔH is -10.8 ± 0.1 kcal/mol and the “−T·ΔS” value worked out at 1.5 ± 0.2 kcal/mol. In assay [2] (setting [4]), the ΔG was -9.4 kcal/mol, the ΔH was -10.8 kcal/mol and the “−T·ΔS” value was 1.5 kcal/mol.
